Data as given in publication PMC10665444, “Unveiling the potential role of natriuretic peptide receptor a isoforms in fine-tuning the cGMP production and tissue-specific function” (Scientific Reports, 2023).

How the values were obtained:
[1] = system: WT NPR-A co-transfected with isoform 1; assay: Whole-cell cGMP assay, DLD-1 cells co-transfected with WT NPR-A and isoform 1; format: cell-based, rat; conditions: peptide 30 min, ELISA, triplicates
Excerpt: (§1) A plasmid containing rat NPR-A in a pCMV-4 backbone, gifted by Dr. Ruey-Bing Yang (Academia Sinica), was used as the NPR-A template. All three receptor isoforms plasmids were created by modifying the NPR-A sequence in the template plasmid using Site-Directed Mutagenesis (SDM) following the protocol from the Q5® Site-Directed Mutagenesis kit. All plasmids were cloned and expanded in NEB 5 α competent cells. DNA sequencing was done to confirm the success of the SDM. Primers used to clone isoform 1 are 5’—tga ccc tga gtg ggg gca acc ttg tgg c—3’ and 5’—gcc aca agg ttg ccc cca ctc agg gtc a—3’. primers used to clone isoform 2 are 5’ –gac ggg tgc ctt cag gcc ctg cca ggt tgt cct gaa cta ta—3’ and 5’ –tat agt tca gga caa cct ggc agg gcc tga agg cac ccg tc—3’. Primers used to clone isoform 3 are 5’—gtg gag gat ggc ctg gca gtg aca gag act—3’ and 5’—agt ctc tgt cac tgc cag gcc atc ctc cac—3’.
(§2) DLD-1 cells were cultured in complete RPMI-1640 medium supplemented with 10% HI-FBS and 1% Penicillin–Streptomycin (P/S). Cells were sub-cultured every 3 days using trypsinization. […]
(§3) Cells were transfected following the transfection protocol above and incubated for another 16 h overnight. […] Total protein content of three wells were determined using Bicinchoninic acid assay and used for normalizing across the different 24-well plates. Expression of the receptors in 3 wells were determined using Western blotting.

NPR-A [2] = conditions: compared with the vasodilatory analogue (DRD-ANP); cited from earlier work
Excerpt: We evaluated the roles of three distinct amino acid residues found within the K-ring and the C-terminal and identified the residues that are responsible for these functions. […] The separation of diuretic and hemodynamic bioactivity in DRD-ANP and D ...

NPR-A [3] = conditions: ANP compared with BNP; cited from earlier work
Excerpt: They interact with three NP receptors (NPRs), namely NPR-A, NPR-B and NPR-C. Lack of NPs or their receptors have been associated with hypertension and heart failure.

NPR-A isoform 3 = assay: Whole-cell cGMP assay (competitive ELISA), DLD-1 cells transfected with NPR-A isoform 3 alone; format: cell-based, rat; conditions: IBMX 0.5 mM 30 min, then peptide 30 min
Excerpt: as §1, §2, §3

[4] = system: WT NPR-A co-transfected with isoform 3; assay: Whole-cell cGMP assay, DLD-1 cells co-transfected with WT NPR-A and isoform 3; format: cell-based, rat; conditions: peptide 30 min, ELISA, triplicates
Excerpt: as §1
(§4) DLD-1 cells were cultured in complete RPMI-1640 medium supplemented with 10% HI-FBS and 1% Penicillin–Streptomycin (P/S). Cells were sub-cultured every 3 days using trypsinization. DLD-1 cells (0.2 million) were seeded per well in 24-well plates to attain near 70% confluent before transfection was performed following the manufacturer’s protocol. Plasmids of interest was incubated with lipofectamine 3000 in a 1:1 ratio before the mixture was added to the cells. For single transfection, 0.8 μ g of the plasmid of interest was used. For co-transfection, the NPR-A WT plasmid was fixed at 0.8 μ g and the receptor isoforms were mixed with the WT plasmid according to their given percentages. For 1% co-transfection, 0.8 μ g of NPR-A WT plasmid was mixed with 0.00808 μ g of receptor isoforms. […]
as §3

NPR-A isoform 1 = assay: Whole-cell cGMP assay (competitive ELISA), DLD-1 cells transfected with NPR-A isoform 1 alone; format: cell-based, rat; conditions: IBMX 0.5 mM 30 min, then peptide 30 min
Excerpt: as §1, §2, §3

[5] = system: WT NPR-A co-transfected with receptor isoforms; assay: Whole-cell cGMP assay, DLD-1 cells co-transfected with WT NPR-A and isoforms (statements over more than one isoform); format: cell-based, rat; conditions: 1% co-transfection of isoform 1 and 2
Excerpt: as §1, §2, §3

[6] = system: WT NPR-A co-transfected with isoform 2; assay: Whole-cell cGMP assay, DLD-1 cells co-transfected with WT NPR-A and isoform 2; format: cell-based, rat; conditions: peptide 30 min, ELISA, triplicates
Excerpt: as §1, §4, §3

NPR-A isoform 2 = assay: Whole-cell cGMP assay (competitive ELISA), DLD-1 cells transfected with NPR-A isoform 2 alone; format: cell-based, rat; conditions: IBMX 0.5 mM 30 min, then peptide 30 min
Excerpt: as §1, §2, §3

In the case of `CC[C@H](C)[C@@H]1NC(=O)[C@H](CCCNC(=N)N)NC(=O)[C@H](CC(=O)O)NC(=O)[C@H](CCSC)NC(=O)[C@H](CCCNC(=N)N)NC(=O)CNC(=O)CNC(=O)[C@H](Cc2ccccc2)NC(=O)[C@@H](NC(=O)[C@H](CO)NC(=O)[C@H](CO)NC(=O)[C@H](CCCNC(=N)N)NC(=O)[C@H](CCCNC(=N)N)NC(=O)[C@H](CC(C)C)NC(=O)[C@@H](N)CO)CSSC[C@@H](C(=O)N[C@@H](CC(N)=O)C(=O)N[C@@H](CO)C(=O)N[C@@H](Cc2ccccc2)C(=O)N[C@@H](CCCNC(=N)N)C(=O)N[C@@H](Cc2ccc(O)cc2)C(=O)O)NC(=O)CNC(=O)[C@H](CC(C)C)NC(=O)CNC(=O)[C@H](CO)NC(=O)[C@H](CCC(N)=O)NC(=O)[C@H](C)NC(=O)CNC1=O` [ANP, Atrial natriuretic peptide], the “decrease in cGMP production of WT NPR-A” value ([1]; 1% co-transfection with isoform 1) is listed as “approximately 10.6%”, the “decrease in cGMP production of WT NPR-A” value ([1]; 50% co-transfection with isoform 1) is listed as 87.4% and the “rate of cGMP production (in words)” value (NPR-A [2]) is listed as “produce cGMP much faster than the vasodilatory analogue (DRD-ANP)”. For the same compound, the “binding affinity for NPR-A (in words)” value (NPR-A [3]) was “stronger binding affinity than BNP”, the “cGMP production (result in words)” value (NPR-A isoform 3) was “no cGMP production was observed” and the “decrease in cGMP production of WT NPR-A” value ([4]; 1% co-transfection with isoform 3) was 22.6%. The “decrease in cGMP production of WT NPR-A” value ([4]; 10% co-transfection with isoform 3) was 54.3%, the “decrease in cGMP production of WT NPR-A” value ([4]; 50% co-transfection with isoform 3) was 86.2% and the “cGMP production (result in words)” value (NPR-A isoform 1) was “no cGMP production was observed”. For the same compound, the “reduction in cGMP production (range over isoforms 1 and 2)” value [5] was 8–10.6%, the “decrease in cGMP production of WT NPR-A” value ([6]; 1% co-transfection with isoform 2) was 8.0% and the “decrease in cGMP production of WT NPR-A” value ([6]; 10% co-transfection with isoform 2) was 69.8%. For the same compound, the “decrease in cGMP production of WT NPR-A” value ([6]; 50% co-transfection with isoform 2) was 84.1% and the “cGMP production (result in words)” value (NPR-A isoform 2) was “no cGMP production was observed”.
